From US11124479B2, “Oligopyrroles as antagonists of islet amyloid polypeptide oligomerization” (New York University, priority 2017, dated 2021)

How the values were obtained:
[1] = target: T1, islet amyloid polypeptide (IAPP) (Homo sapiens, UniProt P10997); assay: ThT-based kinetic assay of IAPP fibrillation; format: biochemical; settings: for relative t50 of IAPP fibrillation versus control reaction / inhibition of IAPP fibrillation (in words): 15 μM IAPP, equimolar ratio; for inhibition of IAPP fibrillation (in words): FIG. 2C; for inhibition capacity towards IAPP fibrillation (in words): ThT assays under our conditions
T1 construct: IAPP is a 37 residue neuropancreatic hormone peptide; purchased Anaspec (Fremont, Calif.)
T1 sequence (P10997 34-70 limits assumed): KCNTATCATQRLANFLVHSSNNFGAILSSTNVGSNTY
Source text: The aggregation kinetics of IAPP was probed using an exogenous reporter, Thioflavin T (ThT), which quantifies the amount of fibers in solution without perturbing the aggregation kinetics of IAPP (see Wolfe, L. S.; Calabrese, M. F.; Nath, A.; Blaho, D. V.; Miranker, A. D.; Xiong, Y. Proc. Natl. Acad. Sci. U.S.A. 2010, 107, 16863-16868; Levine, H. Protein Sci. 1993, 2, 404-410). […] The kinetics of IAPP fibrillation was quantified using the reaction midpoint, t50, which is the time required to reach 50% fluorescence in the fibrillation reaction (FIG. 8).
Kinetic assays were conducted on a FlexStation 3 Multi-Mode Microplate reader from Molecular Devices (Sunnyvale, Calif.). Experiments were conducted in triplicate in a 96-well plate with a final volume of 200 μL per well. Every measurement was an average of 50 readings. The aggregation of IAPP was initiated by its addition from a stock solution (1 mM in DMSO) to phosphate buffer. The stoichiometry ratio for ThT to IAPP was 0.5:1. Peptide aggregation was monitored by ThT fluorescence (λex=445 nm and λem=485 nm). The blank sample contained all the components of the peptide samples except peptide. The sample data were processed by subtracting the blank and renormalizing the fluorescence intensity by setting the maximum value to 1.
Kinetic assays in the presence of the compounds of the invention were conducted under the same conditions. Small molecules were added from a stock solution (1 mM or 10 mM in DMSO) to keep the final concentration of DMSO less than 1.0% (v/v). Small molecules were added to the wells with ThT and buffer and mixed gently with a pipette before adding IAPP. To keep the conditions identical, an equal amount of DMSO was added to the wells with IAPP only reactions. For the aggregation kinetics of Aβ42, the peptide was dissolved in 1N NaOH (0.5-1 mM) and vortexed for 2 min. to ensure the complete solubility. The aggregation of 3 μM Aβ42 was initiated by addition of peptide from a stock solution (in 1 N NaOH, 0.5-1 mM) to phosphate buffer.
Kinetic profiles were processed using Origin (version 9.1). Kinetic curves were fit using the built-in sigmoidal fit. Each run was fit independently to extract the t50 (time required to reach 50% of the maximum fluorescence intensity). Error bars represent standard deviations from the mean of at least three independent experiments.
The membrane model system selected for the amyloid assays is a mixture of DOPG (dioleoylphosphatidylglycerol) and DOPC (dioleoylphosphatidylcholine) at 3:7 molar ratio, which mimics physiological conditions (Ono, K.; Condron, M. M.; Teplow, D. B. Proc. Natl. Acad. Sci. U.S.A. 2009, 106, 14745-14750). The lipid catalyzed aggregation of IAPP was initiated by adding freshly prepared 15 μM IAPP (1 mM stock solution in DMSO) to the phosphate buffer (50 mM NaPi, 150 mM KCl, pH 7.4) containing 15 μM ThT and 750 μM of unilamellar liposomes (LUVs, DOPG:DOPC, 3:7, d=100 nm).

Partition coefficient = format: physicochemical
[2] = target: T2, IAPP-induced lipid membrane leakage (Homo sapiens, UniProt P10997); assay: Fluorescein-based liposome leakage assay; format: biochemical; settings: 4 μM IAPP, equimolar ratio
T2 construct: IAPP is a 37 residue neuropancreatic hormone peptide; purchased Anaspec (Fremont, Calif.)
T2 sequence (P10997 34-70 limits assumed): T1 sequence (P10997 34-70 limits assumed)
Source text: Colocalization of IAPP at the mitochondrial membrane and the subsequent membrane poration is considered to be one of the potential contributors to β-cell toxicity. Therefore, a liposome leakage assay could serve as a surrogate marker for IAPP induced cytotoxicity (see Last, N. B.; Miranker, A. D. Proc. Natl. Acad. Sci. U.S.A. 2013, 110, 6382-6387; and Last, N. B.; Rhoades, E.; Miranker, A. D. Proc. Natl. Acad. Sci. U.S.A. 2011, 108, 9460-9465). A previously reported fluorescein-based liposome leakage assay was employed to test the effect of ADH-101 on membrane associated α-helical intermediates of IAPP. Briefly, fluorescein-dextran conjugate (MW=70 kDa) was encapsulated in unilamaller extruded lipid vesicles (DOPG:DOPC, 3:7, d=100 nm). The size of fluorescein-dextran conjugate allows it to stay inside the lipid vesicles during IAPP mediated membrane poration. The leakage kinetics was probed by the quenching of fluorescence using a fluorescent quencher, DPX (p-xylene-bis-pyridinium […]). The kinetic profiles of leakage are single exponential with a decrease in fluorescence as a function of time. The leakage reaction was initiated by introducing 200 μM liposome into a solution of 4 μM IAPP and 6 mM of DPX. The introduction of the excess ionic concentration by DPX was counterbalanced by adjusting the buffer concentration. The kinetics of the leakage mediated by IAPP yielded a single exponential profile with a leakage rate of 7.3±1.1×10^−3 s^−1 (FIG. 5A).
The kinetics of liposome leakage induced by IAPP was monitored on QuantaMaster C-61 fluorescence spectrometer (Photon Technology International, Edison, N.J.) at 25° C. […] The stock solution of IAPP used in the measurements was kept in water at a concentration of 1 mM. The stock solution of water soluble quencher, DPX (p-xylene-bis-pyridinium bromide) was prepared in buffer (100 mM KCl, 50 mM NaPi, pH 7.4) at a concentration of 100 mM. The small molecules used in the leakage assay were dissolved in DMSO with a concentration range of 10-20 mM. The final concentration of dye encapsulating liposome, DPX, human IAPP, and small molecules were 200, 6000, 4, and 4 μM respectively. The final buffer concentration was corrected using higher concentration of buffer to keep the osmolality balanced. […] To determine the leakage rate constant, first the fluorescence was normalized and corrected by subtracting it from normalized fluorescence of control reaction. The corrected fluorescence was fit using equation given below (using Origin 9.1). All the experiments were performed in triplicate and the error values presented are standard deviations. a*exp(−b*x)+c (2) a=amplitude from 100% unleaked to 0% leaked c=final fraction of unleaked liposome y=change in fluorescence b=leakage rate constant

[3] = lipid catalyzed (750 μM LUVs, DOPG:DOPC 3:7)

## CCOC(=O)c1cc(NC(=O)c2cc(NC(=O)c3cc([N+](=O)[O-])cn3CC(C)C)cn2CC(C)C)cn1CC(C)C [ADH-105]
[1]; de novo / lipid free
  relative t50 of IAPP fibrillation versus control reaction: 2.6 fold
[1]; [3]
  relative t50 of IAPP fibrillation versus control reaction: 1.5 fold

## CCOC(=O)c1cc([N+](=O)[O-])cn1CC(C)C [ADH-113]
[1]
  inhibition of IAPP fibrillation (in words): ineffective

## CCOC(=O)c1cc([N+](=O)[O-])cn1CCC(=O)O [ADH-117]
[1]
  inhibition of IAPP fibrillation (in words): ineffective

## CCOC(=O)c1cc(NC(=O)c2cc(NC(=O)c3cc([N+](=O)[O-])cn3CCCc3ccccc3)cn2CC(C)C)cn1CCC(=O)O [ADH-120]
[1]
  antagonist of oligomerization, fibrillation, and/or aggregation of IAPP (in words): effective antagonist

## COC(=O)c1ccc(NC(=O)c2ccc(NC(=O)c3ccc([N+](=O)[O-])c(OCC(=O)O)n3)c(OCC(C)C)n2)c(OCC(C)C)n1 [ADH-201, reference compound]
[1]; [3]
  relative t50 of IAPP fibrillation versus control reaction: 1.4 fold

## COC(=O)c1ccc(NC(=O)c2ccc(NC(=O)c3ccc([N+](=O)[O-])c(OCC(=O)O)n3)c(OCC(C)C)n2)c(OCC(=O)O)n1 [ADM-11, reference compound]
Partition coefficient
  logP: -0.8
[1]; [3]
  relative t50 of IAPP fibrillation versus control reaction: 1.9 fold

## CC1=C/C(=C(\c2ccc(N)c(S(=O)(=O)[O-])c2)c2ccc(N)c(S(=O)(=O)O)c2)C=C(S(=O)(=O)[O-])C1=N.[Na+].[Na+] [AF, Acid fuchsin, reference compound]
[2]
  effect on IAPP induced liposome leakage (in words): unable to effect
[1]
  inhibition capacity towards IAPP fibrillation (in words): moderate inhibition capacity

## COc1cc(/C=C/C(=O)CC(=O)/C=C/c2ccc(O)c(OC)c2)ccc1O [Curcumin]
[1]
  inhibition capacity towards IAPP fibrillation (in words): moderate inhibition capacity

## O=C(O[C@@H]1Cc2c(O)cc(O)cc2O[C@@H]1c1cc(O)c(O)c(O)c1)c1cc(O)c(O)c(O)c1 [EGCG, reference compound]
[2]
  effect on IAPP induced liposome leakage (in words): unable to effect
[1]
  inhibition capacity towards IAPP fibrillation (in words): moderate inhibition capacity
